The values below come from paper PMC9081362, “Novel MDM2 Inhibitor XR-2 Exerts Potent Anti-Tumor Efficacy and Overcomes Enzalutamide Resistance in Prostate Cancer” (Frontiers in Pharmacology, 2022).

The assay concerns the target MDM2 (Homo sapiens, UniProt Q00987). As to the kind of experiment: HTRF MDM2-p53 binding (displacement) assay.

MDM2, sequence (Q00987 whole entry): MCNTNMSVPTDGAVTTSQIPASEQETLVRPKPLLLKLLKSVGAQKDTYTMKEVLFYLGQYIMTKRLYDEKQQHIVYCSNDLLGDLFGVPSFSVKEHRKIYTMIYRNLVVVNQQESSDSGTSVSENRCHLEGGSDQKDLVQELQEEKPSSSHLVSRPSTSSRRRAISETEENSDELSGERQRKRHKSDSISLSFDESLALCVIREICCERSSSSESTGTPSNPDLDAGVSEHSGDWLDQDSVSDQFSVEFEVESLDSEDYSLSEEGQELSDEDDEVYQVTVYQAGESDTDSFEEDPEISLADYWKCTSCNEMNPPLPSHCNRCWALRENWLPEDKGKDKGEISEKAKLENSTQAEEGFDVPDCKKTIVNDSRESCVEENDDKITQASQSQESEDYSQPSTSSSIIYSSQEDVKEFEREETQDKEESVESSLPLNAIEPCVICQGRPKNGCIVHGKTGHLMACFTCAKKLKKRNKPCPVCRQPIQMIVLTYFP
MDM2, sequence (P04637 whole entry partner): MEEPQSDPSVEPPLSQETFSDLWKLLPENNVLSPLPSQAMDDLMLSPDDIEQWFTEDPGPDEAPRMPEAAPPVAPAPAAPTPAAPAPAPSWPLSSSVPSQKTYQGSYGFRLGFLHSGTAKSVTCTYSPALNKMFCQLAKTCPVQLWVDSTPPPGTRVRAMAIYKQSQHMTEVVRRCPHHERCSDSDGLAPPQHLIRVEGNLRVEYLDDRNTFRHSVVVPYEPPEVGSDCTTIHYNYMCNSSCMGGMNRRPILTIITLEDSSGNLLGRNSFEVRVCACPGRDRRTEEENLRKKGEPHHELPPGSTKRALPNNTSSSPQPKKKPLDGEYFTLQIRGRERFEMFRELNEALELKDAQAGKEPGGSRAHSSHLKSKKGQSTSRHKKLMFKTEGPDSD

On to `COCCOCCOCCOC(=O)N1[C@@H](CC(C)(C)C)[C@@]2(C(=O)Nc3cc(Cl)ccc32)[C@@H](c2cccc(Cl)c2F)[C@@H]1C(=O)Nc1ccc(C(N)=O)cc1OC` [XR-2, 2-(2-(2-methoxyethoxy)ethoxy)ethyl-(2′S,3R,4′S,5′R)-5'-((4-carbamoyl-2-methoxyphenyl)carbamoyl)-6-chloro-4'-(3-chloro-2-fluorophenyl)-2′-neopentyl-2-oxospiro[indoline-3,3′-pyrrolidine]-1′-carboxylate], for which the “HTRF MDM2-p53 binding (displacement) assay” value is recorded as “The homogeneous time-resolved fluorescence binding assay proved that XR-2 directly inhibited MDM2–p53 interaction”.
